Values of other authors, collected in patent publication US7794750B2, “Controlled-release formulations, method of manufacture, and use thereof” (Mutual Pharmaceutical Company, Inc., priority 2008, dated 2010).
Structures can show the parent of a compound that is named as a salt.

Conditions: 25° C., pH of about 7

OCCOCCN1CCN(C2=Nc3ccccc3Sc3ccccc32)CC1 [Quetiapine fumarate, quetiapine fumarate]
aqueous solubility: 3290 µg/mL
